Patent US11643665B2, “Nucleotide sequences encoding Fasciated EAR3 (FEA3) and methods of use thereof” (CORTEVA AGRISCIENCE LLC, priority 2012, dated 2023)
Where no end group is shown, it is not given here.

Tests used:
Assay type in all cases: in vivo, maize
[1] = system: B73 and fea3 mutant seedlings; test: Clavata3-like peptide root assay (primary root length of seedlings on agar plates); settings: 5 μM or 10 μM peptide, after 7 days
Experimental: To analyze whether FEA3 responds to CLV3-like peptides, and determine if they act in a common pathway, a CLV3 peptide assay was performed. The peptides used were ZCL3 (Zea mays CLE-like 3; SEQ ID NO:32), FCP1 (SEQ ID NO:33), CLV3 (SEQ ID NO:34), CLE20 (SEQ ID NO:35), CLE40 (SEQ ID NO:36), ZCL21 ([…]; SEQ ID NO:37), and ZCL23 (Zea mays CLE-like 23; SEQ ID NO:38).
The ZCL peptides were found in maize sequences in the NCBI database by homology search using the CLV3, CLE, and rice related peptides (Fiers et al Plant Cell (2005), 17: 2542-2553; Suzaki et al (2008), Plant Cell, 20: 2049-2058).
B73 and fea3 mutant seedlings were germinated and grown on agar plates containing each 5 μM or 10 μM peptide. As a control, seedlings were also grown on plates containing a scramble of the peptide. After 7 days the length of the primary root was measured.

[2] = system: Wt and fea3 embryos; test: Embryo culture assay in presence of FCP1 peptide (embryo SAM growth); settings: 20 μM peptide, two weeks after planting
Experimental: Wt and fea3 embryos were cultured in the presence of 20 μM FCP1 peptide (SEQ ID NO:33) or 20 μM scrambled peptide. For measurement of embryo SAM growth, about 10 days after pollination, embryos were sterilized (whole corn was sterilized, not individual young seeds) and dissected embryos and put the embryos down on the media and the measurement of SAM size was done two weeks after planting (embryo culture).

[3] = system: B73 and homozygous fea2 and fea3 mutant seedlings; test: Clavata3 peptide root assay (primary root length of seedlings on agar plates); settings: agar plates containing CLV3 peptide, after 7 days
Experimental: In Arabidopsis, CLAVATA2 activity can be detected by responses of root growth to CLAVATA3 (CLV3) peptide. To analyze whether FEA3 and FEA2 respond to CLV3, and determine if they act in a common pathway a CLV3 peptide assay was performed. B73 and homozygous fea2 and fea3 mutant seedlings were germinated and grown on agar plates containing CLV3 peptide. As a control, seedlings were also grown on plates containing a mutated version of the peptide and on plates without any peptide. After 7 days the length of the primary root was measured.

| Substance | root growth response (length of the primary root) ([1]; B73 wild type plants) | root growth response (length of the primary root) ([1]; fea3 mutants) | embryo SAM growth (SAM size) ([2]; WT embryos) | embryo SAM growth (SAM size) ([2]; fea3 embryos) | root growth response (length of the primary root) ([3]; B73 wild type plants) | root growth response (length of the primary root) ([3]; homozygous fea2 mutants) | root growth response (length of the primary root) ([3]; homozygous fea3 mutants) |
| --- | --- | --- | --- | --- | --- | --- | --- |
| FCP1: CLV3-like peptide used for the CLV3/CLV3-like peptide assay (REVPTGPDPIHH; listed as Oryza sativa) | strong root growth inhibition | less sensitivity | strongly inhibited | resistance | – | – | – |
| ZCL3: Zea mays CLE-like 3 peptide, found in maize sequences by homology search using CLV3, CLE and rice related peptides (RPVPSGPDPIHH; Zea mays) | strong root growth inhibition | – | – | – | – | – | – |
| CLV3: CLAVATA3 (CLV3) peptide (RTVPSGPDPLHH; ends and bridges not checked; listed as Arabidopsis thaliana) | strong root growth inhibition | – | – | – | strong root growth inhibition | do not respond | respond |
